The nature of test [1]: Flavor profile of Luo Han Guo solution with added verbascoside or isoverbascoside. Particulars: Luo Han Guo solution (120 ppm). The method, then:
A Luo Han Guo (Biovittoria Ltd., New Zealand) solution was prepared in water (120 ppm). Verbascoside and isoverbascoside solutions were prepared as above (EXAMPLE II). The flavor profile of the Luo Han Guo solution with added verbascoside and isoverbascoside is reported in the following: […]

Test [2] can be described thus: Flavor profile of sucrose solution with added verbascoside or isoverbascoside. Particulars: sucrose solution (4%). The method, then: A sucrose solution (4%) was prepared in water. Each of verbascoside and isoverbascoside solutions of different concentrations was prepared in ethanol solution in water (50%). Verbascoside and isoverbascoside were evaluated at 1 and 200 ppm, respectively.
The flavor profile of the sucrose solution with added verbascoside and isoverbascoside is reported in the following: […]

Molecules are shown by their SMILES.

`CC1OC(OC2C(O)C(OCCc3ccc(O)c(O)c3)OC(CO)C2OC(=O)/C=C/c2ccc(O)c(O)c2)C(O)C(O)C1O` [Verbascoside, (E)-2-(3,4-dihydroxyphenyl)ethyl 3-O-(6-deoxy-α-L-mannopyranosyl)-4-[3-(3,4-dihydroxyphenyl)-2-propenoate]-β-D-Glucopyranoside]: the “overall effect (summary)” value in test [1] and in test [2] was “exhibited particular effect in sweetness enhancement” throughout.

In the case of `CC1OC(OC2C(O)C(COC(=O)/C=C/c3ccc(O)c(O)c3)OC(OCCc3ccc(O)c(O)c3)C2O)C(O)C(O)C1O` (stereo not shown) [Isoverbascoside, isoverbascoside], the “overall effect (summary)” value is “enhanced overall mouthfeel and suppressed Luo Han Guo's lingering off-taste” in test [1]; “enhanced overall mouthfeel” in test [2].

The values are drawn from patent publication US11980211B2, “Verbascoside and related compounds for sweetness enhancement” (International Flavors & Fragrances Inc., priority 2018, dated 2024).
